In the supplement of paper PMC10307832:

Columns and labels:
Experiment in all cases: relative viability (nuclei count vs DMSO), 5 days (fraction); higher = more cells survive
[1] = compound: Cn1cncc1[C@@](N)(c1ccc(Cl)cc1)c1ccc2c(c1)c(-c1cccc(Cl)c1)cc(=O)n2C [Tipifarnib] + O=C(c1cc(Cc2n[nH]c(=O)c3ccccc23)ccc1F)N1CCN(C(=O)C2CC2)CC1 [Olaparib] (partner 8 µM)
In short: (§1)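 Medians of duplicate plates are given as relative viability. That measure is the nuclei count in treated wells divided by the count in vehicle wells. Counts were taken on 4× images of lung cancer cell lines in 1536-well plates, 5 days after pin-tool dosing the day after seeding with one drug alone or a fixed anchor-drug dose plus five library-drug doses (not always all listed) in √10 steps.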

[2] = compound: Cn1cncc1[C@@](N)(c1ccc(Cl)cc1)c1ccc2c(c1)c(-c1cccc(Cl)c1)cc(=O)n2C [Tipifarnib] + CC(=O)c1c(C)c2cnc(Nc3ccc(N4CCNCC4)cn3)nc2n(C2CCCC2)c1=O [Palbociclib] (partner 0.5 µM)
In short: as §1

[3] = compound: Cn1cncc1[C@@](N)(c1ccc(Cl)cc1)c1ccc2c(c1)c(-c1cccc(Cl)c1)cc(=O)n2C [Tipifarnib] + Cc1nc(NC(=O)N2CCC[C@H]2C(N)=O)sc1-c1ccnc(C(C)(C)C(F)(F)F)c1 [Alpelisib] (partner 2 µM)
In short: as §1

[4] = compound: Cn1cncc1[C@@](N)(c1ccc(Cl)cc1)c1ccc2c(c1)c(-c1cccc(Cl)c1)cc(=O)n2C [Tipifarnib] + Nc1nc2[nH]cc(CCc3ccc(C(=O)N[C@@H](CCC(=O)O)C(=O)O)cc3)c2c(=O)[nH]1 [Pemetrexed] (partner 0.2 µM)
In short: as §1

| Cell Line | relative viability ([1]; first compound 0.01 µM) | relative viability ([1]; first compound 0.03162 µM) | relative viability ([1]; first compound 0.1 µM) | relative viability ([1]; first compound 0.3162 µM) | relative viability ([1]; first compound 1 µM) | relative viability ([2]; first compound 0.01 µM) | relative viability ([2]; first compound 0.03162 µM) | relative viability ([2]; first compound 0.1 µM) | relative viability ([2]; first compound 0.3162 µM) | relative viability ([2]; first compound 1 µM) | relative viability ([3]; first compound 0.01 µM) | relative viability ([3]; first compound 0.03162 µM) | relative viability ([3]; first compound 0.1 µM) | relative viability ([3]; first compound 0.3162 µM) | relative viability ([3]; first compound 1 µM) | relative viability ([4]; first compound 0.01 µM) | relative viability ([4]; first compound 0.03162 µM) | relative viability ([4]; first compound 0.1 µM) | relative viability ([4]; first compound 0.3162 µM) | relative viability ([4]; first compound 1 µM) |
| --- | --- | --- | --- | --- | --- | --- | --- | --- | --- | --- | --- | --- | --- | --- | --- | --- | --- | --- | --- | --- |
| 201T | 0.851 | 0.86 | 0.83 | 0.733 | 0.793 | 0.352 | 0.373 | 0.357 | 0.341 | 0.354 | 1.01 | 1.04 | 1.04 | 0.98 | 0.977 | 0.363 | 0.338 | 0.371 | 0.317 | 0.346 |
| A549 | 0.265 | 0.276 | 0.245 | 0.219 | 0.109 |  |  |  |  |  | 0.759 | 0.649 | 0.398 | 0.346 | 0.283 |  |  |  |  |  |
| A-427 | 0.834 | 0.696 | 0.697 | 0.694 | 0.727 | 0.527 | 0.535 | 0.477 | 0.448 | 0.466 | 1.21 | 1.1 | 1.06 | 1.02 | 0.952 | 0.998 | 1.06 | 0.82 | 0.979 | 0.739 |
| ABC-1 | 0.7 | 0.776 | 0.819 | 0.986 | 0.912 | 0.733 | 0.689 | 0.694 | 0.639 | 0.604 | 1.01 |  | 0.869 | 0.721 | 0.822 |  |  |  |  |  |
| BEN | 1.26 | 1.11 | 0.954 | 0.96 | 0.954 | 0.587 | 0.475 | 0.488 | 0.455 | 0.451 | 1.14 | 0.915 | 1.06 | 0.811 | 0.769 | 0.802 | 0.81 | 0.776 | 0.737 | 0.598 |
| CAL-12T | 0.717 | 0.587 | 0.527 | 0.455 | 0.465 | 0.512 | 0.302 | 0.377 | 0.21 | 0.13 | 1.33 | 0.851 | 0.555 | 0.417 | 0.693 | 1.2 | 1.09 | 0.741 | 0.472 | 0.62 |
| COR-L23 | 0.403 | 0.289 | 0.335 | 0.255 | 0.258 | 0.302 | 0.222 | 0.198 | 0.153 | 0.173 | 0.808 | 0.525 | 0.431 | 0.373 | 0.338 | 0.215 | 0.205 | 0.195 | 0.206 | 0.188 |
| COR-L 105 | 0.691 | 0.725 | 0.59 | 0.546 | 0.584 | 0.403 | 0.385 | 0.416 | 0.408 | 0.365 | 1.12 | 0.891 | 0.731 | 0.46 | 0.649 | 1.16 | 1.11 | 0.814 | 0.784 | 0.793 |
| Calu-6 | 0.532 | 0.498 | 0.514 | 0.502 | 0.466 |  |  |  |  |  | 0.831 | 0.667 | 0.609 | 0.412 | 0.505 |  |  |  |  |  |
| ChaGo-K-1 | 0.455 | 0.406 | 0.459 | 0.419 | 0.373 | 0.996 | 0.937 | 0.932 | 0.885 | 0.758 |  |  |  |  |  | 0.262 | 0.274 | 0.265 | 0.27 | 0.272 |
